Patent US20100029710A1, “COMPOUNDS HAVING BOTH ANGIOTENSIN II RECEPTOR ANTAGONISM AND PPARy ACTIVATING ACTIVITIES” (Pfizer Products Inc., priority 2006, published 2010)

Columns and labels:
[1] = target: T1, human PPARγ LBD bound to Gal4 DBD (Homo sapiens, UniProt P37231); assay: PPARγ transfection luciferase reporter assay in HepG2 cells; type: cell-based; settings: for Emax: HepG2, 24 h, compared to full agonist response (standard TZD full agonist), read-out: PPARγ % activation; for EC50: HepG2, 24 hours exposure
T1 construct: expressed in transfected cells; host or cells: HepG2
T1 sequence (P37231 238-503 limits assumed): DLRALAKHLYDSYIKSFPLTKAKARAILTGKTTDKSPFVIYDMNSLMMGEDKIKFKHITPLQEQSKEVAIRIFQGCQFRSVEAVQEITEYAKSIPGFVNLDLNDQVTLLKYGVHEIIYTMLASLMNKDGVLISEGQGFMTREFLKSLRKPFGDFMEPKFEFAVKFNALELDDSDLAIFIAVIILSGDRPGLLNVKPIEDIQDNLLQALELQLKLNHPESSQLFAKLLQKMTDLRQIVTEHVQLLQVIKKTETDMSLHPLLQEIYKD
Summary of the method: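 HepG2 cells transiently co-transfected with Gal4 DBD–PPARγ LBD, luciferase reporter and β-galactosidase, then exposed 24 h to compound (0.1 nM–100 μM). Luciferase/β-gal ratio gives activation. EC50 is relative to each compound's own maximum; efficacy is % of a reference TZD full agonist.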

[2] = target: T2, Human recombinant AT1 receptor (Homo sapiens, UniProt P30556); assay: AT1 receptor radioligand binding (flashplate); settings: 125I Sar1,Ile8-Angiotensin II radioligand
T2 construct: purchased
T2 sequence (P30556 1-359): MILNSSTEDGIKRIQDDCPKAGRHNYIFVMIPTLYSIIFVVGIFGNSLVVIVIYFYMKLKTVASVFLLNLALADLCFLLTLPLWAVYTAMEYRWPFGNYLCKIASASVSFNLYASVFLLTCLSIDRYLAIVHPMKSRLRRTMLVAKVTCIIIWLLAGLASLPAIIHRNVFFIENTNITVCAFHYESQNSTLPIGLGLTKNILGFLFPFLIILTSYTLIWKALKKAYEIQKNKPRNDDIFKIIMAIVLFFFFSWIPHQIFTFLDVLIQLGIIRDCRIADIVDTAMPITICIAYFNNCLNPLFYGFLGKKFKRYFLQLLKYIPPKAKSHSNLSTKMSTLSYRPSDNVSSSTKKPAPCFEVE
Summary of the method: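 Human recombinant AT1 receptor was coated on flashplates and competed against 125I-Sar1,Ile8-angiotensin II at its Kd concentration for 2 h at room temperature. Compounds were tested from […], with nonspecific binding defined by 10 μM angiotensin II. Ki was derived via Cheng-Prusoff.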

| Structure (SMILES) | Emax [1] | EC50 [1] | IC50 [2] |
| --- | --- | --- | --- |
| CCCc1nc2c(C)cc(CC[C@H](C)O)nc2n1[C@H]1CCc2cc(-c3ccccc3-c3nnn[nH]3)ccc21 [Example 41, (S)-4-(3-((1S)-5-(2-(1H-tetrazol-5-yl)phenyl)-2,3-dihydro-1H-inden-1-yl)-7-methyl-2-propyl-3H-imidazo[4,5-b]pyridin-5-yl)butan-2-ol] | 21% | 965 nM | 0.9 nM |
| CCc1nc2c(C)cc(CCC3(O)CCOC3)nc2n1[C@H]1CCc2cc(-c3ccccc3-c3nnn[nH]3)ccc21 (stereo partly drawn) [Example 54, 3-(2-(3-((1S)-5-(2-(1H-tetrazol-5-yl)phenyl)-2,3-dihydro-1H-inden-1-yl)-2-ethyl-7-methyl-3H-imidazo[4,5-b]pyridin-5-yl)ethyl)-tetrahydrofuran-3-ol] | 26% | 535 nM | 1 nM |
| CCc1nc2c(C)cc(CC(O)CC(C)C)nc2n1[C@H]1CCc2cc(-c3ccccc3-c3nnn[nH]3)ccc21 (stereo partly drawn) [Example 18, 1-(3-((1S)-5-(2-(1H-tetrazol-5-yl)phenyl)-2,3-dihydro-1H-inden-1-yl)-2-ethyl-7-methyl-3H-imidazo[4,5-b]pyridin-5-yl)-4-methylpentan-2-ol] | 29% | 85 nM | 5.4 nM |
| CCc1nc2c(C)cc(CCc3ccc(OC)cc3)nc2n1[C@H]1CCc2cc(-c3ccccc3-c3nnn[nH]3)ccc21 [Example 27, 3-((1S)-5-(2-(1H-tetrazol-5-yl)phenyl)-2,3-dihydro-1H-inden-1-yl)-5-(4-methoxyphenethyl)-2-ethyl-7-methyl-3H-imidazo[4,5-b]pyridine] | 21% | 485 nM | 2 nM |
| CCc1nc2c(C)cc(CC3CCCCC3O)nc2n1[C@H]1CCc2cc(-c3ccccc3-c3nnn[nH]3)ccc21 (single isomer, unassigned) [Example 64] | 21% | 95 nM | 1.9 nM |
| CCc1nc2c(C)cc(CC[C@@H](O)CC)nc2n1[C@H]1CCc2cc(-c3ccccc3-c3nnn[nH]3)ccc21 [Example 46, (S)-1-(3-((1S)-5-(2-(1H-tetrazol-5-yl)phenyl)-2,3-dihydro-1H-inden-1-yl)-2-ethyl-7-methyl-3H-imidazo[4,5-b]pyridin-5-yl)pentan-3-ol] | 26% | 170 nM | 1.2 nM |
| C=CCC(O)Cc1cc(C)c2nc(CC)n([C@H]3CCc4cc(-c5ccccc5-c5nnn[nH]5)ccc43)c2n1 (stereo partly drawn) [Example 20, 1-(3-((1S)-5-(2-(1H-tetrazol-5-yl)phenyl)-2,3-dihydro-1H-inden-1-yl)-2-ethyl-7-methyl-3H-imidazo[4,5-b]pyridin-5-yl)pent-4-en-2-ol] | 31% | 70 nM | 5.7 nM |
| CCc1nc2c(C)cc(CC[C@H](O)CC)nc2n1[C@H]1CCc2cc(-c3ccccc3-c3nnn[nH]3)ccc21 [Example 45, (R)-1-(3-((1S)-5-(2-(1H-tetrazol-5-yl)phenyl)-2,3-dihydro-1H-inden-1-yl)-2-ethyl-7-methyl-3H-imidazo[4,5-b]pyridin-5-yl)pentan-3-ol] | 32% | 140 nM | 1.1 nM |
| CCc1nc2c(C)cc(CCC(C)(O)CC(C)C)nc2n1[C@H]1CCc2cc(-c3ccccc3-c3nnn[nH]3)ccc21 (stereo partly drawn) [Example 69, 1-(3-((1S)-5-(2-(1H-tetrazol-5-yl)phenyl)-2,3-dihydro-1H-inden-1-yl)-2-ethyl-7-methyl-3H-imidazo[4,5-b]pyridin-5-yl)-3,5-dimethylhexan-3-ol] | 36% | 30 nM | 4 nM |
| CCc1nc2c(C)cc(Cn3nccn3)nc2n1[C@H]1CCc2cc(-c3ccccc3-c3nnn[nH]3)ccc21 [Example 66, 3-((1S)-5-(2-(1H-tetrazol-5-yl)phenyl)-2,3-dihydro-1H-inden-1-yl)-5-((2H-1,2,3-triazol-2-yl)methyl)-2-ethyl-7-methyl-3H-imidazo[4,5-b]pyridine] | 22% | 435 nM | 6 nM |
| CCc1nc2c(C)cc(CCC3(O)CCCC3)nc2n1[C@H]1CCc2cc(-c3ccccc3-c3nnn[nH]3)ccc21 [Example 42, 1-(2-(3-((1S)-5-(2-(1H-tetrazol-5-yl)phenyl)-2,3-dihydro-1H-inden-1-yl)-2-ethyl-7-methyl-3H-imidazo[4,5-b]pyridin-5-yl)ethyl)cyclopentanol] | 29% | 155 nM | 1.1 nM |
| CCc1nc2c(C)cc(CCC(C)(O)C(C)(C)C)nc2n1[C@H]1CCc2cc(-c3ccccc3-c3nnn[nH]3)ccc21 (stereo partly drawn) [Example 68, 1-(3-((1S)-5-(2-(1H-tetrazol-5-yl)phenyl)-2,3-dihydro-1H-inden-1-yl)-2-ethyl-7-methyl-3H-imidazo[4,5-b]pyridin-5-yl)-3,4,4-trimethylpentan-3-ol] | 34% | 45 nM | 6.5 nM |
| CCc1nc2c(C)cc([C@H](O)c3ccccc3)nc2n1[C@H]1CCc2cc(-c3ccccc3-c3nnn[nH]3)ccc21 [Example 8b, (R)-(3-((1S)-5-(2-(1H-tetrazol-5-yl)phenyl)-2,3-dihydro-1H-inden-1-yl)-2-ethyl-7-methyl-3H-imidazo[4,5-b]pyridin-5-yl)(phenyl)methanol] | 25% | 100 nM | 1.5 nM |
| CCc1nc2c(C)cc(CC(C)=O)nc2n1[C@H]1CCc2cc(-c3ccccc3-c3nnn[nH]3)ccc21 [Example 14, 1-(3-((1S)-5-(2-(1H-tetrazol-5-yl)phenyl)-2,3-dihydro-1H-inden-1-yl)-2-ethyl-7-methyl-3H-imidazo[4,5-b]pyridin-5-yl)propan-2-one] | 21% | 410 nM | 5 nM |
| CCc1nc2c(C)cc(CCc3cc(C)ccc3C)nc2n1[C@H]1CCc2cc(-c3ccccc3-c3nnn[nH]3)ccc21 [Example 31, 3-((1S)-5-(2-(1H-tetrazol-5-yl)phenyl)-2,3-dihydro-1H-inden-1-yl)-5-(2,5-dimethylphenethyl)-2-ethyl-7-methyl-3H-imidazo[4,5-b]pyridine] | 63% | 45 nM | 6.9 nM |
| CCc1nc2c(C)cc(CCCn3cccn3)nc2n1[C@H]1CCc2cc(-c3ccccc3-c3nnn[nH]3)ccc21 [Example 33, 5-(3-(1H-pyrazol-1-yl)propyl)-3-((1S)-5-(2-(1H-tetrazol-5-yl)phenyl)-2,3-dihydro-1H-inden-1-yl)-2-ethyl-7-methyl-3H-imidazo[4,5-b]pyridine] | 23% | 400 nM | 2.1 nM |
| CCCc1nc2c(C)cc(CCC(C)(O)CC)nc2n1[C@H]1CCc2cc(-c3ccccc3-c3nnn[nH]3)ccc21 (stereo partly drawn) [Example 50, 1-(3-((1S)-5-(2-(1H-tetrazol-5-yl)phenyl)-2,3-dihydro-1H-inden-1-yl)-7-methyl-2-propyl-3H-imidazo[4,5-b]pyridin-5-yl)-3-methylpentan-3-ol] | 30% | 415 nM | 1.7 nM |
| CCc1nc2c(C)cc(C(C)(O)C(C)C)nc2n1[C@H]1CCc2cc(-c3ccccc3-c3nnn[nH]3)ccc21 (stereo partly drawn) [Example 61, 2-(3-((1S)-5-(2-(1H-tetrazol-5-yl)phenyl)-2,3-dihydro-1H-inden-1-yl)-2-ethyl-7-methyl-3H-imidazo[4,5-b]pyridin-5-yl)-3-methylbutan-2-ol] | 21% | 410 nM | 5 nM |
| CCc1nc2c(C)cc(CCC3(O)CCCCC3)nc2n1[C@H]1CCc2cc(-c3ccccc3-c3nnn[nH]3)ccc21 [Example 52, 1-(2-(3-((1S)-5-(2-(1H-tetrazol-5-yl)phenyl)-2,3-dihydro-1H-inden-1-yl)-2-ethyl-7-methyl-3H-imidazo[4,5-b]pyridin-5-yl)ethyl)cyclohexanol] | 36% | 290 nM | 1.3 nM |
